Test results reported in publication PMC7359024, “Synthesis, Structure–Activity Relationship, and Mechanistic Studies of Aminoquinazolinones Displaying Antimycobacterial Activity” (ACS Infectious Diseases, 2020).
Values after ≈ are worked out from the molar mass of the structure shown. Like-named read-outs stand apart in the source and are kept apart here.

Experiments:
[1] = tested on: Mtb Erdman-Lux
[2] = tested on: H37Rv Mtb strain; assay: MIC90 in different media, H37Rv strain; assay type: cell-based, Mycobacterium tuberculosis
[3] = tested on: Mtb H37Rv strain; assay: MIC90 determination in GASTE-Fe media (broth microdilution); assay type: cell-based, Mycobacterium tuberculosis; details: read-out: MIC90 GASTE-Fe
[4] = assay type: in vitro ADME; details: for Metabolic Stability H (% Rem.): human liver microsomes; for Metabolic Stability M (% Rem.): mouse liver microsomes; for Metabolic Stability R (% Rem.): rat liver microsomes
Method: 3.2. Microsomal stability
The metabolic stability assay was performed in duplicate in a 96-well micro titre plate. The test compounds (0.1 μM) were incubated individually in mouse, rat and pooled human liver microsomes ((final protein concentration of 0.4 mg/mL; XenoTech, Lenexa, KS ), suspended in 0.1M phosphate buffer (pH 7.4) at 37 °C for predetermined time points, in the presence and absence of the cofactor NADPH (1 mM). Reactions were quenched by adding ice cold acetonitrile containing internal standard (carbamazepine, 0.0236 µg/mL). T he samples were centrifuged and test compound in the supernatant were analysed by means of LC -MS/MS (Agilent Rapid Resolution HPLC, AB SCIEX 4500 MS ). The relative loss of parent compound over time was monitored and plots (concentration vs. time) were prepared per compound to determine the first order rate constant for compound depletion. This was in turn used to calculate half-life, in vitro intrinsic clearance and in vivo hepatic extraction ratio. Metabolite searches were not conducted during the metabolic stability assay. 5

[5] = physchem; assay type: physicochemical; details: 25 °C, pH 7.4, aqueous buffer, kinetic solubility, pH 7.4, HPLC method
Method: The kinetic solubility assay was performed using a miniaturised shake flask method. 10 mM stock solutions of each of the test compounds were used to prepare calibration standards (10-220μM) in DMSO. The same 10mM stock solutions were accurately dispensed in duplicate into 96-well plates and the DMSO dried down (MiVac GeneVac, 90 min, 37 °C). Thereafter, the samples were reconstituted (200 µM) in phosphate buffered saline (pH 7.4) and shaken (20 hours, 25 °C). The solutions were filtered and analysed by means of HPLC -DAD (Agilent 1200 Rapid Resolution HPLC with a diode array detector). […]

[6] = in vivo; set-up: species or system C57/BL6 mice; details: for Vd / clearance / half-life / Tmax / Cmax: C57/BL6, in vivo; for clearance: read-out: CLtotal; for half-life: read-out: apparent t1/2 (converted); for Cmax: whole blood; for bioavailability: oral 20 mg/kg vs iv 5 mg/kg
Method: In vivo PK studies were performed on compound 1 (sulfone) and compound 2 (sulfoxide) (Table 3). All studies and procedures were conducted with prior approval of the animal ethics committee of the University of Cape Town (approval numbers 013/028 and 014/028) in accordance with the South African National Standard (SANS 10386:008) for the Care and Use of Animals for Scientific Purposes and guidelines from the Department of Health. […]
the South African National Standard (SANS 10386:008) for the Care and Use of Animals for Scientific Purposes,6 and guidelines from the Department of Health.7
The pharmacokinetic parameters of the compounds were determined by dosing the compound to C57/BL6 mice through oral (n = 3 mice) and intravenous (n = 3 mice) administration. For oral administration, the compounds were formulated in 0.5% hydroxypropylmethyl cellulose (HPMC) in Phosphate buffered saline pH 7.4. The intravenous doses were administered in dimethylacetamide-polyethylene glycol 400-polypropylene glycol (DMA-PEG400-PPG) (10:30:60) Blood samples were collected via tail bleeding at predetermined time points and stored at -80°C until liquid chromatography-tandem mass spectrometry (LC-MS/MS) analysis.
The whole-blood concentrations of the compounds were determined using a quantitative LC- […]
method, using ice -cold acetonitrile.
After centrifugation, the supernatant was transferred to 96 -well plates for analysis. LC -MS/MS was carried out on an AB Sciex 400 0 QTrap coupled to an Agilent 1200 high -performance liquid chromatograph (HPLC). Separation was achieved on a Kinetex PFP column column, using 0.1% formic acid in water as the aqueous mobile phase and 0.1% formic acid in acetonitrile as the organic mobile phase. The analytical limit of quantitation (LOQ) was 1 ng/ml. LC-MS/MS method accuracy and precision were 15% (nom) for the standards and […]
Concentration-versus-time data were used to derive the PK parameters using noncompartmental analys is on PK Solutions 2.0 (Summit Research Services, Montrose, CO,

[7] = in vitro; details: Chinese hamster
[8] = tested on: recA expression; assay type: cell-based; details: indicator of genotoxic compounds
[9] = tested on: cytochrome-bd oxidase knockout mutant strain (Δcyd); assay type: cell-based
[10] = tested on: Erdman Mtb strain; assay: MIC90 in different media, Erdman strain; assay type: cell-based; details: Mycobacterium tuberculosis
[11] = tested on: iniB expression; assay type: cell-based; details: detects compounds targeting cell-wall biosynthesis
[12] = C57/BL6, mouse, in vivo, read-out: bioavailability
[13] = Mtb H37Rv, replicating conditions, GASTE-Fe media, read 14 days after incubation
[14] = Mycobacterium tuberculosis, H37RV, 336 h, Mtb H37Rv, replicating conditions, GASTE-Fe media, read 14 days after incubation
[15] = 100 mg/kg oral once per day, 12 days, three days after last dose, untreated 6.51
[16] = Erdman, 7H12 + casitone + palmitic acid + BSA + catalase + Tween 80 (glycerol-free)
[17] = Mycobacterium tuberculosis, H37RV; 7H12 + casitone + palmitic acid + BSA + catalase + Tween 80 (glycerol-free); read-out: MIC90
[18] = Mycobacterium tuberculosis, H37RV; read-out: MIC90

CO[C@H]1/C=C/O[C@@]2(C)Oc3c(C)c(O)c4c(O)c(c(/C=N/N5CCN(C)CC5)c(O)c4c3C2=O)NC(=O)/C(C)=C\C=C\[C@H](C)[C@H](O)[C@@H](C)[C@@H](O)[C@@H](C)[C@H](OC(C)=O)[C@@H]1C [Rifampicin, reference compound]
mean lung burdens ([1]; mouse, in vivo): 5.72 log10 CFU
reduction of lung burdens ([1]; mouse, in vivo): 0.8 log
MIC90 [2]: <0.008 µg/mL
MIC ([2]; Mycobacterium tuberculosis, H37RV, read-out: MIC90): 0.016 µg/mL (≈ 0.0194 µM)
MIC90 ([3]; Mycobacterium tuberculosis, H37RV, 336 h): 0.0039 µM (≈ 0.00321 µg/mL)

CS(=O)(=O)c1cccc(-c2ccc3nc(N)n(-c4ccc(C(F)(F)F)cc4)c(=O)c3c2)c1 [compound 1, 2-Amino-6-(3-(methylsulfonyl)phenyl)-3-(4-(trifluoromethyl)phenyl)quinazolin-4(3H)-one]
Metabolic Stability H (% Rem.) [4]: 97 % Rem.
Metabolic Stability M (% Rem.) [4]: 92 % Rem.
Metabolic Stability R (% Rem.) [4]: 100 % Rem.
solubility [5]: < 5 µM
AUC0–∞ ([6]; 1 as metabolite of 2, mouse, oral 20 mg/kg of compound 2): 18430 min·μmol·L^–1
Vd ([6]; mouse, iv 5 mg/kg): 0.81 L/kg
clearance ([6]; mouse, iv 5 mg/kg): 1.3 mL/min/kg
half-life ([6]; mouse, iv 5 mg/kg): 7.3 h
Tmax ([6]; mouse, oral 20 mg/kg): 3 h
Cmax ([6]; mouse, oral 20 mg/kg): 5.98 µM
bioavailability [6, 12]: 18%
AUC0–∞ ([6]; mouse, iv 5 mg/kg): 8589 min·μmol·L^–1
AUC0–∞ ([6]; mouse, oral 20 mg/kg): 7249 min·μmol·L^–1
bioavailability ([6]; mouse): 18.4%
MIC90 [3, 13]: <0.244 µM
MIC90 [3, 14]: < 0.244 µM
IC50 [7]: > 100 µM

C[S+]([O-])c1cccc(-c2ccc3nc(N)n(-c4ccc(C(F)(F)F)cc4)c(=O)c3c2)c1 (stereo not shown) [compound 2, 2-Amino-6-(3-(methylsulfinyl)phenyl)-3-(4-(trifluoromethyl)phenyl)quinazolin-4(3H)-one]
signal in PrecA-LUX reporter assay [8]: did not show a positive signal
Metabolic Stability H (% Rem.) [4]: 88/-/- % Rem.
solubility [5]: 80 µM (≈ 35.5 µg/mL)
Δcyd GASTE-Fe MIC90 [9]: 2.5 µM
mean lung burdens [1, 15]: 7.84 log10 CFU
mean lung burdens ([1]; 200 mg/kg oral once per day, 12 days, three days after last dose, untreated 6.51): 7.75 log10 CFU
tolerability ([1]; 100 and 200 mg/kg oral once per day, 12 consecutive days): no evidence of compound tolerability issues
efficacy in the BALB/c acute infection model ([1]; 100 and 200 mg/kg oral, 12 days): lack efficacy
Vd ([6]; mouse, iv 5 mg/kg): 11.1 L/kg
clearance ([6]; mouse, iv 5 mg/kg): 21.8 mL/min/kg
half-life ([6]; mouse, iv 5 mg/kg): 6.2 h
Tmax ([6]; mouse, oral 20 mg/kg): 0.5 h
Cmax ([6]; mouse, oral 20 mg/kg): 3.54 µM
bioavailability [6, 12]: 93%
AUC0–∞ ([6]; mouse, iv 5 mg/kg): 523 min·μmol·L^–1
AUC0–∞ ([6]; mouse, oral 20 mg/kg): 2152 min·μmol·L^–1
MIC [10]: 1 µg/mL (≈ 2.26 µM)
MIC [10, 16]: > 16 µg/mL
signal in PiniB-LUX reporter assay [11]: did not show a positive signal
MIC [2, 17]: > 16 µg/mL
MIC [2, 18]: 0.5 µg/mL (≈ 1.13 µM)
MIC90 [3, 14]: 0.64 µM (≈ 0.284 µg/mL)
IC50 [7]: > 100 µM

C[S+]([O-])c1cccc(-c2ccc3c(=O)n(-c4ccc(C(F)(F)F)cc4)c(N)nc3c2)c1 (stereo not shown) [compound 31]
Metabolic Stability H (% Rem.) [4]: 98 % Rem.
Metabolic Stability M (% Rem.) [4]: 78 % Rem.
Metabolic Stability R (% Rem.) [4]: 73 % Rem.
solubility [5]: < 5 µM
MIC90 [3, 14]: 1.32 µM (≈ 0.585 µg/mL)
IC50 [7]: > 50 µM

Nc1nc2cc(-c3cccc(C(F)(F)F)c3)ccc2c(=O)n1-c1ccc(C(F)(F)F)cc1 [compound 32]
Metabolic Stability H (% Rem.) [4]: 95 % Rem.
Metabolic Stability M (% Rem.) [4]: 82 % Rem.
Metabolic Stability R (% Rem.) [4]: 89 % Rem.
solubility [5]: < 5 µM
MIC90 [3, 14]: 0.8 µM (≈ 0.359 µg/mL)
IC50 [7]: > 50 µM

CNc1nc2ccc(-c3cccc([S+](C)[O-])c3)cc2c(=O)n1-c1ccc(C(F)(F)F)cc1 (stereo not shown) [compound 40, 2-(Methylamino)-6-(3-(methylsulfinyl)phenyl)-3-(4-(trifluoromethyl)phenyl)quinazolin-4(3H)-one]
Metabolic Stability H (% Rem.) [4]: 89 % Rem.
Metabolic Stability M (% Rem.) [4]: 87 % Rem.
Metabolic Stability R (% Rem.) [4]: 90 % Rem.
solubility [5]: 64 µM (≈ 29.3 µg/mL)
MIC90 [3, 14]: 1.4 µM (≈ 0.64 µg/mL)
IC50 [7]: > 50 µM

CNc1nc2ccc(-c3cccc(S(C)(=O)=O)c3)cc2c(=O)n1-c1ccc(C(F)(F)F)cc1 [compound 41, 2-(Methylamino)-6-(3-(methylsulfonyl)phenyl)-3-(4-(trifluoromethyl)phenyl)quinazolin-4(3H)-one]
Metabolic Stability H (% Rem.) [4]: 98 % Rem.
Metabolic Stability M (% Rem.) [4]: 100 % Rem.
Metabolic Stability R (% Rem.) [4]: 100 % Rem.
solubility [5]: < 5 µM
MIC90 [3, 13]: >125 µM
MIC90 [3, 14]: > 125 µM
IC50 [7]: > 50 µM

CC[C@@H](CO)NCCN[C@@H](CC)CO [ethambutol, reference compound]
mean lung burdens [1, 15]: 4.15 log10 CFU
reduction of lung burdens ([1]; 100 mg/kg, relative to untreated): 2.4 log

NNC(=O)c1ccncc1 [isoniazid, reference compound]
MIC [10]: 0.016 µg/mL (≈ 0.117 µM)
MIC [10, 16]: 0.016 µg/mL
MIC [2, 17]: 0.016 µg/mL
MIC [2, 18]: 0.016 µg/mL (≈ 0.117 µM)
